Data as given in patent US12116356B2, “N-heterocyclic five-membered ring-containing capsid protein assembly inhibitor, pharmaceutical composition thereof, and use thereof” (CHIA TAI TIANQING PHARMACEUTICAL GROUP CO., LTD., priority 2018, dated 2024).
Values after ≈ are worked out from the molar mass of the structure shown.

Key:
HBV DNA in HepAD38 cells = assay: In vitro cell HBV DNA inhibitory activity (anti-HBV activity) in HepAD38 cells; type: cell-based; settings: Hepatitis B virus, 144 h; anti-HBV activity in HepAD38 cells, 6 days treatment, intracellular capsid HBV DNA by qPCR; read-out: EC50
How it was run: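 HepG2.2.15 or HepAD38 cells on collagen-coated plates were grown 48 h, then treated 6 days with 10-point two-fold compound dilutions, with medium and compound refreshed every 72 h. Intracellular capsid HBV DNA quantified by real-time qPCR. EC50 from Ct-based inhibition by four-parameter fit.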

[1] = Solubility in PBS buffer at pH 7.4; type: physicochemical; settings: aqueous buffer, PBS buffer pH 7.4, 25° C.
Experimental: […] After standing at 25° C. for 16 hours, the system was centrifugated (12000 rpm, room temperature) for 10 min. 20 μL of the supernatant was taken out, and the reaction was terminated with 400 μL of acetonitrile containing an internal standard (diazepam 20 ng/mL). 30 μL of the supernatant was pipetted, and 150 μL of 50% acetonitrile aqueous solution was added thereto for dilution and mixed uniformly. 0.5 μL of the resulting solution was injected for analysis.

[2] = In vivo pharmacokinetics (PK) study in rats; parameters: species or system SD rats; settings: rat
[3] = In vitro cytotoxicity (CCK-8) in HepG2.2.15 cells; type: cell-based; settings: human
Experimental: (§1) A bottle of HepG2.2.15 or HepAD38 cells in good exponential growth state was taken, washed once by adding 5 mL PBS, and then thereto was added 3 mL trypsin. The sample was digested in a cell culture incubator, and taken out from time to time and observed under a microscope. When the cells just fell off, 1 mL trypsin was discarded. The residual liquid was placed in a cell culture incubator at 37° C. and digested for 8-15 min. The cells were taken out and observed under a microscope (whether the cells were individually round and there was no adhesion between the cells). 5 mL MEM medium was added for cell resuspension. The cells were then subjected to cell counting with a cell counter, diluted with a complete medium, and adjusted to a cell density of 2*10^5 cells/mL. Then the cells were seeded at 100 μL/well in a 96-well plate with a multi-channel pipette (the 96-well plate was coated with 50 μg/mL Collagen I solution in advance), and cultured in a constant temperature CO2 incubator for 24 h. The cells were treated by drug administration, and fresh medium containing the compound was used to replace the spent medium every 3 days. To control wells was added a drug-free medium containing 0.5% DMSO, and a control well containing a common medium was set up. 6 days after the administration, CCK-8 was added at 10 μL/well. After 1 to 2 hours, the absorbance was detected with microplate reader at 450 nm, and the inhibition rate and the CC50 were calculated.

[4] = Stability of rat liver microsomes in vitro; type: in vitro ADME
Experimental: (§2) 300 μL of a final incubation system contains 30 μL of liver microsomes (protein concentration: 0.15 mg/mL), 30 μL NADPH+MgCl2, 3 μL substrate (formulated with acetonitrile), and 237 μL PBS buffer. Duplicate incubation systems of 0.3 mL each were formulated for each species. A total volume of 270 μL of a uniformly mixed solution of the substrate and the enzyme was formulated in each tube, the solution and NADPH were pre-incubated at 37° C. for 5 minutes, respectively. Then 30 μL of the mixed solution of NADPH+MgCl2 was added for reaction. 50 μL of the reaction solution was taken out at 0, 10, 30, and 60 mins, and the reaction was terminated with 300 μL of ice acetonitrile containing an internal standard.
(§3) Sample pre-treatment: To 50 μL of the incubated sample was added 300 μL of ice acetonitrile containing diazepam as an internal standard and then precipitated. After vortexing for 5 minutes, the sample was centrifugated (12000 rpm, 4° C.) for 10 minutes. 75 μL of the supernatant was pipetted into a 96-well plate, and then diluted with 75 μL ultrapure water and mixed uniformly. 0.5 μL of the resulting solution was injected and analyzed by LC-MS/MS.

[5] = Stability of mouse liver microsomes in vitro; type: in vitro ADME
Experimental: as §2, §3

[6] = test system: HBV DNA in HepG2.2.15 cells; assay: In vitro cell HBV DNA inhibitory activity (anti-HBV activity) in HepG2.2.15 cells; type: cell-based; settings: Hepatitis B virus, 144 h; anti-HBV activity in HepG2.2.15 cells, 6 days treatment, intracellular capsid HBV DNA by qPCR; read-out: EC50
Experimental: A bottle of HepG2.2.15 or HepAD38 cells in good exponential growth state was taken, washed once by adding 5 mL PBS, and then thereto was added 3 mL trypsin. After digesting at room temperature for 5 min, 2 mL trypsin was discarded, and then the sample was placed in a cell culture incubator and digested for 10 min. The cells were taken out from time to time and observed under a microscope (whether the cells were individually round and there was no adhesion between the cells). 10 mL complete medium was added to terminate the digestion. After pipetting into a single cell suspension, 10 μL of the cell suspension was taken out for cell counting with a cell counter, and then diluted with a complete medium and adjusted to a cell density of 1*10^5 cells/mL. Then the cell suspension was seeded at 1 mL/well in a 24-well plate with a multi-channel pipette (the 24-well plate was coated with 50 μg/mL Collagen I solution in advance), and cultured in a constant temperature CO2 incubator for 48 h.
Different compounds dissolved in DMSO were subjected to two-fold gradient dilution (10 concentrations in total) with complete medium. The compound was added, and fresh medium containing the compound was used to replace the spent medium every 72 hours. The cells were treated with the compound for 6 days. After the supernatant was siphoned off, 300 μL lysate (10 mM Tris-HCl, 1 mM EDTA, and 1% NP-40) was added to each well. After lysing at room temperature for 10 min, DNA was extracted, and HBV DNA in the intracellular viral capsid was measured by real-time fluorescence quantitative PCR. The inhibition rate was calculated based on the Ct value, and the EC50 value was calculated by the four-parameter method.

[7] = In vitro cytotoxicity (CCK-8) in HepAD38 cells; type: cell-based; settings: human
Experimental: as §1

[8] = Stability of human liver microsomes in vitro; type: in vitro ADME
Experimental: as §2, §3

Compound	EC50 (HBV DNA in HepAD38 cells) [µM]	solubility at 16 h [1] [µM]	half-life ([2]; SD, in vivo, iv, 5 mg/kg) [h]	AUC(0-inf) ([2]; plasma, SD rats, IV 5 mg/kg) [ng·h/mL]	Cmax ([2]; plasma, SD rats, IV 5 mg/kg) [ng/mL]	clearance ([2]; plasma, SD rats, IV 5 mg/kg) [mL/min/kg]	AUC(0-t) ([2]; plasma, SD rats, IV 5 mg/kg, read-out: AUC(0-48 h)) [ng·h/mL]	Vd ([2]; plasma, SD rats, IV 5 mg/kg, read-out: Vz) [L/kg]	CC50 at 6 days [3] [µM]	Remaining (%) at 60 min [4] [%]	Remaining (%) at 60 min [5] [%]	EC50 [6] [µM]	CC50 at 6 days [7] [µM]	Remaining (%) at 60 min [8] [%]
Cc1c(C(=O)Nc2ccc(F)c(C#N)c2)c(C)n(C)c1C(=O)C(=O)N[C@@H](C)C(F)(F)F [Example 12]	< 0.01	8.1 (≈ 3.55 µg/mL)	3.41	27100	6270	3.1	27100	0.914	> 100	65.0	67.1	< 0.01	> 100	78.8
Cc1c(C(=O)Nc2ccc(F)c(C#N)c2)c(C)n(C)c1C(=O)C(=O)NC1(C(F)(F)F)COC1 [Example 25, N-(3-cyano-4-fluorophenyl)-1,2,4-trimethyl-5-(2-oxo-2-((3-(trifluoromethyl)oxetan-3-yl)amino)acetyl)-1H-pyrrole-3-carboxamide]	< 0.01	–	–	–	–	–	–	–	> 100	52.0	50.8	< 0.01	> 100	–
